A short description of test [1]: Malodor counteracting effect, scale of 0 to 5. The conditions noted are these: 10% in water; scale of 0 to 5, 0=none, 1=minimal effect, 5=the highest possible effect. Here is the method:
(ii) Malodor counteracting effect was evaluated using a scale of 0 to 5, where 0=none, 1=minimal effect and 5=the highest possible effect. High coverage of mold/mildew and sweat malodors by Compounds 1-6 (10% in water) was reported in the following: […]

The nature of test [2]: Percent Reduction of Malodor Intensity. As to conditions: 10% in water. An excerpt: (iii) Malodor counteracting effect of Compounds 1-6 (10% in water) was further evaluated and their respective “Percent Reduction of Malodor Intensity” was reported in the following: […]

For the molecule `CC(C)C(C)C(C)C(C)O` (stereo not drawn) [Compound 5, 3,4,5-trimethyl-hexan-2-ol], in test [1], the “Malodor counteracting effect, Mold/Mildew” value came to 4.22 and the “Malodor counteracting effect, Sweat” value was found to be 4.47. Also, in test [2], the “Percent Reduction of Malodor Intensity, Bathroom” value (from here on “Percent Reduction … Bathroom”) is given as 92%; the “Percent Reduction of Malodor Intensity, Mold/Mildew” value (from here on “Percent Reduction … Mold/Mildew”) was 80%; the “Percent Reduction of Malodor Intensity, Smoke” value (“Percent Reduction … Smoke” for short) was 83%; the “Percent Reduction of Malodor Intensity, Sweat” value (shortened to “Percent Reduction … Sweat”) was determined as 85%.
Regarding `COC1CCC(C(C)C)CC1` (stereo not drawn) [Compound 1, 1-methoxy-4-(methylethyl)-cyclohexane], in test [1], the “Malodor counteracting effect, Mold/Mildew” value is 4.62 and the “Malodor counteracting effect, Sweat” value amounted to 4.51. For the same molecule, in test [2], the “Percent Reduction … Bathroom” value is recorded as 92%; the “Percent Reduction … Mold/Mildew” value stood at 88%; the “Percent Reduction … Smoke” value is given as 84%; the “Percent Reduction … Sweat” value is reported as 83%.
Regarding `CCOC1C(C)CCCC1C` (stereo not drawn) [Compound 2, 2-ethoxy-1,3-dimethyl-cyclohexane], in test [1], the “Malodor counteracting effect, Mold/Mildew” value turned out to be 4.44 and the “Malodor counteracting effect, Sweat” value is recorded as 4.56. Also, in test [2], the “Percent Reduction … Bathroom” value came to 90%; the “Percent Reduction … Mold/Mildew” value is 79%; the “Percent Reduction … Smoke” value worked out at 87%; the “Percent Reduction … Sweat” value is given as 90%.
Regarding `CC(C)CC1OC(C)CCC1C(C)CC=O` (stereo not drawn) [Compound 3, 3-[6-methyl-2-(2-methylpropyl)tetrahydro-2H-pyran-3-yl]butanal], in test [1], the “Malodor counteracting effect, Mold/Mildew” value came out at 4.08 and the “Malodor counteracting effect, Sweat” value turned out to be 4.15. For the same molecule, in test [2], the “Percent Reduction … Bathroom” value came to 85%; the “Percent Reduction … Mold/Mildew” value is given as 81%; the “Percent Reduction … Smoke” value was found to be 82%; the “Percent Reduction … Sweat” value is 86%.
In the case of `CC(=O)C(C)C(C)C(C)C` (stereo not drawn) [Compound 6, 3,4,5-trimethyl-hexan-2-one], in test [1], the “Malodor counteracting effect, Mold/Mildew” value was found to be 4.04 and the “Malodor counteracting effect, Sweat” value worked out at 4.30. Also, in test [2], the “Percent Reduction … Bathroom” value turned out to be 87%; the “Percent Reduction … Mold/Mildew” value is listed as 90%; the “Percent Reduction … Smoke” value amounted to 84%; the “Percent Reduction … Sweat” value amounted to 83%.
As to `CCCCCCOC1CCC(C)(C)O1` (stereo not drawn) [Compound 4, 5-hexyloxy-2,2-dimethyl-tetrahydro-furan], in test [1], the “Malodor counteracting effect, Mold/Mildew” value is given as 4.27 and the “Malodor counteracting effect, Sweat” value worked out at 4.53. In test [2], the “Percent Reduction … Bathroom” value was found to be 83%; the “Percent Reduction … Mold/Mildew” value turned out to be 74%; the “Percent Reduction … Smoke” value worked out at 76%; the “Percent Reduction … Sweat” value worked out at 79%.

The values above are taken from patent publication US10549006B2, “High-coverage, low odor malodor counteractant compounds and methods of use” (International Flavors & Fragrances Inc., priority 2014, dated 2020).
